Laboratory results published in US6187905A, “Alpha-ketoamide derivatives” (Hoffmann-La Roche Inc., priority 1998, dated 2001).
Like-named read-outs stand apart in the source and are kept apart here. *1 amine or outer side, *2 acyl side, *3 side chain or, on linkers, in order; H or OH if unused. Where a SMILES comes first, the peptide text is derived from it. [ ]: non-standard residue; d: D form. The star is where a group is joined. Phe(2-Me) = Cc1ccccc1C[C@H](N)C(=O)O; NleCONH2 = CCCC[C@H](N*)C(=O)C(N)=O; Suc = O=C(CCC(=O)[*:2])[*:1]; Tle = CC(C)(C)[C@H](N)C(=O)O

Target: HCV proteinase (Hepatitis C virus genotype 1a, UniProt P27958)
Sequence (P27958 1027-1208): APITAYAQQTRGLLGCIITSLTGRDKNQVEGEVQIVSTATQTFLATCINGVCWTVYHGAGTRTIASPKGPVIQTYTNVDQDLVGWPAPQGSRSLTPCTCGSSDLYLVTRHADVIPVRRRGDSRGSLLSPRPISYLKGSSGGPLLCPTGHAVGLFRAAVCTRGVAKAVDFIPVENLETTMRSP
Assay: HCV proteinase inhibition assay (described in WO 98/22496)
Assay type: biochemical
Description: As mentioned earlier, the compounds of formula I and their salts are inhibitors of proteases of viral origin. For example, all compounds of formula 1 are inhibitors against HCV protease.

Compound	IC50	IC50 (read-out: HCV proteinase IC50)
CC[C@H](NC(=O)C(=O)C(CC(F)(F)F)NC(=O)[C@H](CC(C)C)NC(=O)[C@@H](NC(=O)[C@H](Cc1ccccc1C)NC(=O)[C@H](CCC(=O)O)NC(=O)[C@H](CC(=O)O)NC(=O)CCC(=O)O)C(C)(C)C)c1ccccc1 (mixture of isomers) [B, 3(RS)-[[N-[N-[N-[N-[N-(3-Carboxypropionyl)-L-α-aspartyl]-L-α-glutamyl]-2-methyl-L-phenylalanyl]-3-methyl-L-valyl]-L-leucyl]amino]-5,5,5-trifluoro-2-oxo-N-(1(S)-phenylpropyl)valeramide]	7 nM	
Cc1ccccc1C[C@H](NC(=O)[C@H](CCC(=O)O)NC(=O)[C@H](CC(=O)O)NC(=O)CCC(=O)O)C(=O)N[C@H](C(=O)N[C@@H](CC(C)C)C(=O)NC(CC(F)(F)F)C(=O)C(=O)N[C@H](c1ccccc1)C(C)C)C(C)(C)C (mixture of isomers) [C, 3(RS)-[[N-[N-[N-[N-[N-(3-Carboxypropionyl)-L-α-aspartyl]-L-α-glutamyl]-2-methyl-L-phenylalanyl]-3-methyl-L-valyl]-L-leucyl]amino]-5,5,5-trifluoro-N-(2-methyl-1(S)-phenylpropyl)-2-oxovaleramide]	7 nM	
Cc1ccccc1C[C@H](NC(=O)[C@H](CCC(=O)O)NC(=O)[C@H](CC(=O)O)NC(=O)CCC(=O)O)C(=O)N[C@H](C(=O)N[C@@H](CC(C)C)C(=O)NC(CC(F)(F)F)C(=O)C(=O)NCc1ccc(O)cc1)C(C)(C)C (mixture of isomers) [E, 3(RS)-[[N-[N-[N-[N-[N-(3-Carboxypropionyl)-L-α-aspartyl]-L-α-glutamyl]-2-methyl-L-phenylalanyl]-3-methyl-L-valyl]-L-leucyl]amino]-5,5,5-trifluoro-N-(4-hydroxybenzyl)-2-oxovaleramide]	4 nM	
COc1cccc(CNC(=O)C(=O)C(CC(F)(F)F)NC(=O)[C@H](CC(C)C)NC(=O)[C@@H](NC(=O)[C@H](Cc2ccccc2C)NC(=O)[C@H](CCC(=O)O)NC(=O)[C@H](CC(=O)O)NC(=O)CCC(=O)O)C(C)(C)C)c1 (mixture of isomers) [F, 3(RS)-[[N-[N-[N-[N-[N-(3-Carboxypropionyl)-L-α-aspartyl]-L-α-glutamyl]-2-methyl-L-phenylalanyl]-3-methyl-L-valyl]-L-leucyl]amino]-5,5,5-trifluoro-N-(3-methoxybenzyl)-2-oxovaleramide]	6 nM	
Cc1ccccc1C[C@H](NC(=O)[C@H](CCC(=O)O)NC(=O)[C@H](CC(=O)O)NC(=O)CCC(=O)O)C(=O)N[C@H](C(=O)N[C@@H](CC(C)C)C(=O)NC(CC(F)(F)F)C(=O)C(=O)N[C@@H](C)c1ccccc1)C(C)(C)C (mixture of isomers) [G, 3(RS)-[[N-[N-[N-[N-[N-(3-Carboxypropionyl)-L-α-aspartyl]-L-α-glutamyl]-2-methyl-L-phenylalanyl]-3-methyl-L-valyl]-L-leucyl]amino]-5,5,5-trifluoro-N-(α(S)-methylbenzyl)-2-oxovaleramide]	4 nM	
Cc1ccccc1C[C@H](NC(=O)[C@H](CCC(=O)O)NC(=O)[C@H](CC(=O)O)NC(=O)CCC(=O)O)C(=O)N[C@H](C(=O)N[C@@H](CC(C)C)C(=O)NC(CC(F)(F)F)C(=O)C(=O)NCc1ccccc1)C(C)(C)C (mixture of isomers) [H, N-Benzyl-3(RS)-[[N-[N-[N-[N-[N-(3-carboxypropionyl)-L-α-aspartyl]-L-α-glutamyl]-2-methyl-L-phenylalanyl]-3-methyl-L-valyl]-L-leucyl]amino]-5,5,5-trifluoro-2-oxovaleramide]	4 nM	
Cc1ccccc1C[C@H](NC(=O)[C@H](CCC(=O)O)NC(=O)[C@H](CC(=O)O)NC(=O)CCC(=O)O)C(=O)N[C@H](C(=O)N[C@@H](CC(C)C)C(=O)NC(CC(F)(F)F)C(=O)C(=O)N[C@@H](C)c1ccc2ccccc2c1)C(C)(C)C (mixture of isomers) [A]		4 nM
Cc1ccccc1C[C@H](NC(=O)[C@H](CCC(=O)O)NC(=O)[C@H](CC(=O)O)NC(=O)CCC(=O)O)C(=O)N[C@H](C(=O)N[C@@H](CC(C)C)C(=O)NC(CC(F)(F)F)C(=O)C(=O)N[C@@H](C)c1ccc2ccccc2c1)C(C)(C)C (mixture of isomers) [I]		8 nM
Cc1ccccc1C[C@H](NC(=O)[C@H](CCC(=O)O)NC(=O)[C@H](CC(=O)O)NC(=O)CCC(=O)O)C(=O)N[C@H](C(=O)N[C@@H](CC(C)C)C(=O)NC(CC(F)(F)F)C(=O)C(N)=O)C(C)(C)C (single isomer, unassigned) [D, 3(R or S)-[[N-[N-[N-[N-[N-(3-Carboxypropionyl)-L-α-aspartyl]-L-α-glutamyl]-2-methyl-L-phenylalanyl]-3-methyl-L-valyl]-L-leucyl]amino]-5,5,5-trifluoro-2-oxovaleramide]	7 nM	
CCCC[C@H](NC(=O)[C@H](CC(C)C)NC(=O)[C@@H](NC(=O)[C@H](Cc1ccccc1C)NC(=O)[C@H](CCC(=O)O)NC(=O)[C@H](CC(=O)O)NC(=O)CCC(=O)O)C(C)(C)C)C(=O)C(N)=O [J, 3(S)-[[N-[N-[N-[N-[N-(3-Carboxypropionyl)-L-α-aspartyl]-L-α-glutamyl]-2-methyl-L-phenylalanyl]-3-methyl-L-valyl]-L-leucyl]amino]-2-oxoheptanamide] (Suc-DE[Phe(2-Me)][Tle]L-NleCONH2)	11.5 nM	
